Laboratory results reported in ChEMBL document CHEMBL3044967, “Synthesis, biological evaluation, and molecular modeling studies of new 1,3,4-oxadiazole- and 1,3,4-thiadiazole-substituted 4-oxo-4H-pyrido[1,2-a]pyrimidines as anti-HIV-1 agents” (Med Chem Res, 2013).

Assays:
[1] = tested on: Human immunodeficiency virus 1; assay: Antiviral activity against Human immunodeficiency virus 1 NL4-3 infected human HeLa cells assessed as decrease in P24 expression at 100 uM after 72 hr by single cycle replication assay; format: functional; conditions: Human immunodeficiency virus 1, NL4-3, HeLa
[2] = Cytotoxicity against Homo sapiens (human) HeLa cells infected with HIV-1 NL4-3 assessed as cell viability at 100 uM by XTT assay; format: cell-based; conditions: read-out: Activity

Structure (SMILES)	inhibition at 100 µM [1] [%]	viability at 100 µM [2] [%]
O=c1c(-c2nnc(-c3ccc(Cl)cc3)o2)cnc2ccccn12	26	94
Nc1nnc(-c2cnc3ccccn3c2=O)o1		96
O=c1c(-c2nnc(S)o2)cnc2ccccn12	11	100
O=c1c(-c2nnc(-c3ccccc3)o2)cnc2ccccn12		98
O=c1c(-c2nnc(-c3ccc(F)cc3)o2)cnc2ccccn12	18	100
COc1ccc(-c2nnc(-c3cnc4ccccn4c3=O)o2)cc1		100
Cc1ccc(-c2nnc(-c3cnc4ccccn4c3=O)o2)cc1	29	94
O=c1c(-c2nnc(-c3ccccc3)s2)cnc2ccccn12	33	100
O=c1c(-c2nnc(-c3ccc(F)cc3)s2)cnc2ccccn12	48	92
O=c1c(-c2nnc(-c3ccc(Cl)cc3)s2)cnc2ccccn12	39	95
COc1ccc(-c2nnc(-c3cnc4ccccn4c3=O)s2)cc1	28	97
Cc1ccc(-c2nnc(-c3cnc4ccccn4c3=O)s2)cc1	51	93
Cc1cn([C@H]2C[C@H](N=[N+]=[N-])[C@@H](CO)O2)c(=O)[nH]c1=O [ZIDOVUDINE]	100	100
